Our source for the GI50 and TGI values is PubChem BioAssay (NCI).

Among the test systems are MDA-MB-231 breast; EKVX NSCLC; OVCAR-8 ovarian; IGROV1 ovarian; OVCAR-4 ovarian; BT-549 breast; RXF 393 renal; UACC-257 melanoma; UO-31 renal; OVCAR-5 ovarian.
Holding throughout (assay): inhibition of tumour cell growth, NCI panel, 48 h

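A five-concentration, 48-hour dose response in 96-well plates underlies each endpoint, interpolated linearly between surrounding concentrations. GI50 marks 50% less growth. TGI marks complete inhibition of growth.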

In the case of `CCNC(=O)c1ccc2c(c1)nc(-c1ccc(Cl)cc1)n2-c1cc(C(C)(C)C)[nH]n1`, the GI50 with MDA-MB-231 breast is 5.56 µM; with EKVX NSCLC, 3.14 µM; in the experiment with OVCAR-8 ovarian, 3.06 µM; in the experiment with IGROV1 ovarian, 5.22 µM; with OVCAR-4 ovarian, 5.43 µM; in the experiment on BT-549 breast it was 4.53 µM. The GI50 was 1.81 µM in the experiment on RXF 393 renal, 3.59 µM in the experiment on UACC-257 melanoma, 3.46 µM in the experiment on UO-31 renal and 5.91 µM with OVCAR-5 ovarian. Also, the TGI in the experiment with MDA-MB-231 breast is 28.5 µM; with EKVX NSCLC, greater than 100 µM; in the experiment with OVCAR-8 ovarian it was 13.4 µM; in the experiment on IGROV1 ovarian it was 64.8 µM; with OVCAR-4 ovarian it was greater than 100 µM; in the experiment with BT-549 breast, 18.2 µM. Moreover, the TGI with RXF 393 renal was found to be 5.55 µM; in the experiment on UACC-257 melanoma it was 30.5 µM; in the experiment on UO-31 renal it was 44.5 µM; in the experiment with OVCAR-5 ovarian, 40.1 µM.

On to `C/C=C(\C)C(=O)OC1C2C(C)C(=O)OC2C(O)C(C)C2C=CC(=O)C21C` (centres undefined), for which the TGI in the experiment with MDA-MB-231 breast was 13.7 µM; with EKVX NSCLC, 38 µM; in the experiment on OVCAR-8 ovarian it was 34.8 µM; with IGROV1 ovarian, 25.5 µM; in the experiment with OVCAR-4 ovarian, greater than 74.7 µM; in the experiment with BT-549 breast, 25.2 µM. For the same compound, the TGI came out at 24.5 µM with RXF 393 renal, 30.2 µM in the experiment with UACC-257 melanoma, 32.8 µM in the experiment on UO-31 renal and 38.8 µM with OVCAR-5 ovarian.

On to `Cc1ccc(C)c(N2C(=O)C(=O)c3c(C)ccc(C)c32)c1`, for which the TGI is 49.8 µM in the experiment with MDA-MB-231 breast; greater than 100 µM with EKVX NSCLC; 51.5 µM in the experiment on OVCAR-8 ovarian; 43.4 µM in the experiment with IGROV1 ovarian; greater than 100 µM in the experiment on OVCAR-4 ovarian; 42.2 µM in the experiment on BT-549 breast. Besides, the TGI in the experiment with RXF 393 renal is greater than 100 µM; in the experiment on UACC-257 melanoma, 48.2 µM; in the experiment with UO-31 renal it was 55.3 µM; with OVCAR-5 ovarian, greater than 100 µM.

For the compound `C=C(CN(C)C)C(=O)c1ccc(OC)cc1`, the TGI worked out at 17.3 µM in the experiment on MDA-MB-231 breast; 44.8 µM in the experiment on EKVX NSCLC; 3.17 µM in the experiment with OVCAR-8 ovarian; 22 µM in the experiment with IGROV1 ovarian; 22.1 µM in the experiment with OVCAR-4 ovarian; 18.1 µM with BT-549 breast. Moreover, the TGI in the experiment with RXF 393 renal turned out to be 24.9 µM; with UACC-257 melanoma it was 11.6 µM; in the experiment on UO-31 renal, 7.92 µM; in the experiment with OVCAR-5 ovarian, 29.8 µM.

Turning to `O=C(Nc1cccc(-n2cc(-c3ccncc3)c(-c3ccc(O)c(Cl)c3)n2)c1)c1ccc(N2CCOCC2)c(C(F)(F)F)c1`, the GI50 in the experiment with MDA-MB-231 breast is 0.857 µM; in the experiment on OVCAR-8 ovarian, 2.24 µM; with IGROV1 ovarian, greater than 50 µM; in the experiment with OVCAR-4 ovarian it was greater than 50 µM; in the experiment on BT-549 breast it was 2.35 µM; in the experiment on RXF 393 renal it was 0.283 µM. Further, the GI50 with UACC-257 melanoma is greater than 50 µM; with UO-31 renal it was 2.99 µM; in the experiment on OVCAR-5 ovarian it was greater than 50 µM. Besides, the TGI was 3.09 µM with MDA-MB-231 breast; greater than 50 µM with OVCAR-8 ovarian; greater than 50 µM with IGROV1 ovarian; greater than 50 µM in the experiment with OVCAR-4 ovarian; greater than 50 µM with BT-549 breast; 2.25 µM with RXF 393 renal. Moreover, the TGI in the experiment with UACC-257 melanoma, in the experiment with UO-31 renal and in the experiment on OVCAR-5 ovarian was greater than 50 µM each time.

In the case of `COc1cc(CCNc2nc3cc(N)cc(N)c3nc2-c2ccccc2)cc(OC)c1`, the GI50 in the experiment on MDA-MB-231 breast was 1.57 µM; in the experiment with EKVX NSCLC it was 1.8 µM; in the experiment on IGROV1 ovarian, 2.52 µM; with OVCAR-4 ovarian it was 1.21 µM; in the experiment on BT-549 breast it was 2.48 µM; with RXF 393 renal it was 1.59 µM. The GI50 is 1.76 µM in the experiment with UACC-257 melanoma, 1.94 µM with UO-31 renal and 1.83 µM with OVCAR-5 ovarian. Further, the TGI in the experiment on MDA-MB-231 breast was determined as 4.55 µM; with EKVX NSCLC, 3.4 µM; in the experiment on IGROV1 ovarian, 7.98 µM; with OVCAR-4 ovarian, 2.54 µM; in the experiment on BT-549 breast it was 5.47 µM; with RXF 393 renal, 4.8 µM. In addition, the values for the TGI in the experiment on UACC-257 melanoma, in the experiment with UO-31 renal and in the experiment on OVCAR-5 ovarian were 3.61 µM, 3.78 µM and 3.69 µM, respectively.

In the case of `O=C1c2ccccc2CCC1(Br)Br`, the GI50 in the experiment with MDA-MB-231 breast is 1.97 µM; with OVCAR-8 ovarian it was 2.36 µM; with IGROV1 ovarian, 2.59 µM; in the experiment on OVCAR-4 ovarian it was 1.48 µM; with BT-549 breast, 2 µM; in the experiment with RXF 393 renal, 1.68 µM. Also, the GI50 in the experiment on UACC-257 melanoma was 1.88 µM; in the experiment with UO-31 renal it was 1.27 µM; with OVCAR-5 ovarian, 1.76 µM. Further, the TGI came out at 4.72 µM in the experiment on MDA-MB-231 breast; 6.04 µM in the experiment with OVCAR-8 ovarian; 5.98 µM in the experiment with IGROV1 ovarian; 2.97 µM in the experiment on OVCAR-4 ovarian; 4.96 µM in the experiment with BT-549 breast; 3.32 µM in the experiment with RXF 393 renal. In addition, the TGI with UACC-257 melanoma was 4.98 µM; with UO-31 renal, 2.6 µM; in the experiment with OVCAR-5 ovarian, 3.25 µM.

Regarding `O=C1C(Cl)=C(Nc2ccccn2)C(=O)c2ccccc21`, the GI50 in the experiment on MDA-MB-231 breast is 3.23 µM; with EKVX NSCLC, 17.2 µM; in the experiment on OVCAR-8 ovarian, 3.25 µM; in the experiment with IGROV1 ovarian, 3.04 µM; with BT-549 breast it was 2.09 µM; with RXF 393 renal, 10.2 µM. Besides, the GI50 in the experiment on UACC-257 melanoma was 1.91 µM; with UO-31 renal it was 2.27 µM; in the experiment with OVCAR-5 ovarian it was 7.42 µM. Besides, the TGI in the experiment on MDA-MB-231 breast came to 16.6 µM; with EKVX NSCLC, 49.4 µM; in the experiment with OVCAR-8 ovarian, 13 µM; in the experiment with IGROV1 ovarian, 8.05 µM; in the experiment with BT-549 breast, 4.58 µM; in the experiment with RXF 393 renal it was 21.8 µM. Further, the TGI in the experiment with UACC-257 melanoma amounted to 3.84 µM; with UO-31 renal, 7.2 µM; with OVCAR-5 ovarian it was 23.2 µM.

In the case of `CS(=O)(=O)N(CC(=O)O)Cc1ccccc1`, the TGI in the experiment on MDA-MB-231 breast, in the experiment with EKVX NSCLC, in the experiment with OVCAR-8 ovarian, in the experiment on IGROV1 ovarian, with OVCAR-4 ovarian and in the experiment with BT-549 breast was greater than 100 µM in each case. Moreover, the TGI in the experiment on RXF 393 renal, in the experiment with UACC-257 melanoma and in the experiment with OVCAR-5 ovarian was greater than 100 µM in each case.

Take `[O]=[W](=[O])([OH])[OH]`: the GI50 in the experiment with MDA-MB-231 breast, in the experiment on OVCAR-8 ovarian, in the experiment on IGROV1 ovarian, in the experiment on OVCAR-4 ovarian, in the experiment on BT-549 breast and in the experiment on RXF 393 renal was greater than 100 µM each time. Also, the GI50 in the experiment with UACC-257 melanoma, in the experiment on UO-31 renal and with OVCAR-5 ovarian was greater than 100 µM in each case. Moreover, the TGI in the experiment on MDA-MB-231 breast, in the experiment with OVCAR-8 ovarian, in the experiment on IGROV1 ovarian, in the experiment on OVCAR-4 ovarian, with BT-549 breast and in the experiment on RXF 393 renal was greater than 100 µM throughout. The TGI with UACC-257 melanoma, with UO-31 renal and with OVCAR-5 ovarian was greater than 100 µM in each case.
